Experimental data from ChEMBL document CHEMBL4184117, “Design, synthesis and anti-malarial activities of synthetic analogs of biselyngbyolide B, a Ca2+ pump inhibitor from marine cyanobacteria” (Bioorg Med Chem Lett, 2018).

Legend:
[1] = target: Sarcoplasmic/endoplasmic reticulum calcium ATPase 1 (Homo sapiens, UniProt O14983); assay: Inhibition of SERCA1a (unknown origin) ATPase activity
Plasmodium falciparum [2] = assay: Antimalarial activity against Plasmodium falciparum FcB1; format: functional, organism-based; details: FcB1/Columbia
Plasmodium falciparum [3] = assay: Antimalarial activity against Plasmodium falciparum 3D7; format: functional, organism-based
HeLa = assay: Growth inhibition of human HeLa cells after 72 hrs by MTT assay; format: cell-based
MRC5 = assay: Growth inhibition of human MRC5 cells after 7 days by MTT assay; format: cell-based; details: MRC5, 168 h
Plasmodium falciparum [4] = assay: Antimalarial activity against chloroquine-sensitive Plasmodium falciparum FCR3 infected in human type A+ erythrocytes assessed as growth inhibition after 72 hrs by LDH assay; format: functional, organism-based; details: FCR3, 72 h
Plasmodium falciparum [5] = assay: Antimalarial activity against chloroquine-resistant Plasmodium falciparum K1 infected in human type A+ erythrocytes assessed as growth inhibition after 72 hrs by LDH assay; format: functional, organism-based; details: K1, 72 h

Chain of Sarcoplasmic/endoplasmic reticulum calcium ATPase 1 (O14983 whole entry): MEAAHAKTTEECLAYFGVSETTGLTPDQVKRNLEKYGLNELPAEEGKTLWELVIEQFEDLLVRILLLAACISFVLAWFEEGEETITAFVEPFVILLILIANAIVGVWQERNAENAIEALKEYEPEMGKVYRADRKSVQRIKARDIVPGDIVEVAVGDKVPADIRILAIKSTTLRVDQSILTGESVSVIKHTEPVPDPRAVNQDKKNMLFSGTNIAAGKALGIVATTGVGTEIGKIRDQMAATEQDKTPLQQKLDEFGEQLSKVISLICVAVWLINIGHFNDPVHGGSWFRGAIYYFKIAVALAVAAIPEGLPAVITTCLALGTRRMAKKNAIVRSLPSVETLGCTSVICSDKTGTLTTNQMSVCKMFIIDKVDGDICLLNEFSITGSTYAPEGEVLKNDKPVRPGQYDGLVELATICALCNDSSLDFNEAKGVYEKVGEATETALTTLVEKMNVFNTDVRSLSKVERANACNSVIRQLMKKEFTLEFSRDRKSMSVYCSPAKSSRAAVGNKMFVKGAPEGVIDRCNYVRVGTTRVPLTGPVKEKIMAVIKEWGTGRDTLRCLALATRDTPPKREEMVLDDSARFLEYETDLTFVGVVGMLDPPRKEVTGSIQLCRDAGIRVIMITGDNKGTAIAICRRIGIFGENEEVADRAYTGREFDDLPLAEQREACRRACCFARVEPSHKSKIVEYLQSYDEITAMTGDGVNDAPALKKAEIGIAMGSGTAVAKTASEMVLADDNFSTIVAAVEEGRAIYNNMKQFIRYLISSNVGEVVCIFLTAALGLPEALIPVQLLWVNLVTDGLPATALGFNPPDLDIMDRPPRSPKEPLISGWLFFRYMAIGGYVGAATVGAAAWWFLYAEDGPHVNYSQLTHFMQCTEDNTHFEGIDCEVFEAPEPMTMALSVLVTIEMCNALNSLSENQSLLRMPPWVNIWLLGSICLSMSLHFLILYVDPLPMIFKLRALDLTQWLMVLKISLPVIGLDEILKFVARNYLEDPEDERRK

| Structure (SMILES) | Ki [1] [nM] | IC50 (Plasmodium falciparum [2]) [µM] | IC50 (Plasmodium falciparum [3]) [µM] | IC50 (HeLa) [µM] | IC50 (MRC5) [nM] | IC50 (Plasmodium falciparum [4]) [µM] | IC50 (Plasmodium falciparum [5]) [µM] |
| --- | --- | --- | --- | --- | --- | --- | --- |
| C/C=C(/C)C(=O)O[C@H]1C(C)=C2[C@H]([C@@H]1OC(=O)CCCCCCC)[C@@](C)(OC(C)=O)C[C@H](OC(=O)CCC)[C@@]1(O)[C@H]2OC(=O)[C@@]1(C)O [THAPSIGARGIN] | 0.1 | – | – | – | – | – | – |
| CC(=O)C1=C(O)[C@@H]2[C@H]3c4c[nH]c5cccc(c45)C[C@H]3C(C)(C)N2C1=O [CYCLOPIAZONIC ACID] | 1800 | 4.9 | 8.8 | – | – | – | – |
| C/C=C/C/C(C)=C\[C@H]1C/C=C/C=C/C[C@H](C)/C=C(\C)[C@@H](OC)C/C=C/[C@@H](O[C@@H]2O[C@H](CO)[C@@H](O)[C@H](OC)[C@H]2O)CC(=O)O1 | 19 | – | – | 2.5 | 400 | 4.4 | 3.4 |
| CCNC(=O)/C(C)=C\[C@H]1C/C=C/C=C/C[C@H](C)/C=C(\C)[C@@H](OC)C/C=C/[C@@H](O)CC(=O)O1 | – | – | – | 9.2 | 2900 | 17 | 16 |
| CO[C@H]1C/C=C/[C@@H](O)CC(=O)O[C@@H](/C=C(/C)CO)C/C=C/C=C/C[C@H](C)/C=C/1C | – | – | – | > 30 | 19000 | 24 | > 31 |
| CO[C@H]1C/C=C/[C@@H](O)CC(=O)O[C@@H](/C=C(/C)CNC(C)=O)C/C=C/C=C/C[C@H](C)/C=C/1C | – | – | – | 4.9 | 3000 | 14 | 19 |
| C/C=C/C/C(C)=C\[C@H]1C/C=C/C=C/C[C@H](C)/C=C(\C)[C@@H](OC)C/C=C/[C@@H](O)CC(=O)O1 | 17 | – | – | 0.0028 | 230 | 23.5 | 24 |
